Source: patent publication US5801178A, “Aniline derivative having polyunsaturated fatty acid residue and use thereof” (Nippon Shoji Kaish Ltd., priority 1995, dated 1998)

Tests used:
[1] = test system: ACAT derived from rat liver; experiment: Inhibitory activity against ACAT derived from rat liver microsome; assay type: biochemical; details: pH 7.4, 37° C., 30 minutes
Protocol: Inhibitory activity against ACAT derived from rat liver microsome
(§1) Using, as an enzyme source, the microsomal fractions prepared from rat liver in the manner described below under Preparation of Microsome, the inhibitory activity against ACAT in the microsome fractions was determined as in the following. The compound of the present invention was dissolved in dimethyl sulfoxide and used as a sample solution. [1-^14 C] […] Ethanol (1 ml) was added to stop the reaction, and n-hexane (4.5 ml) was added. The reaction mixture was centrifuged at 2,000 rpm for 2 minutes and the upper n-hexane layer was separated and recovered, whereby cholesterol oleate (reaction product) was extracted. n-Hexane was evaporated with a nitrogen gas and the residue was re-dissolved dissolved in n-hexane (50 μl), which was used as a sample for thin-layer chromatography. […] After developing, the spot of cholesterol oleate was colored with iodine. The spot was cut out and dissolved in a xylene scintillator (Aquasol-2, Daiichi Pure Chemicals Co., Ltd.). The amount of cholesterol oleate was determined using a liquid scintillation counter.
The liver was removed from a fasted rat and thoroughly perfused with 0.25M sucrose solution. The liver was weighed, minced with scissors or razor and placed in a Teflon homogenizer. The liver was homogenized with 9 volumes [9 ml per g (wet weight) of liver] of 0.25M sucrose solution or 50 mM Tris-HCl buffer (pH 7.5) containing 0.25M sucrose and 5 mM MgCl2. The homogenate was centrifuged at 8,000-10,000 g for 10-15 minutes. The obtained supernatant was centrifuged at 105,000 g for 60-90 minutes. The sediment obtained from this centrifugation was suspended in 150 mM potassium phosphate buffer (pH 7.4) to give a microsomal fraction.

[2] = target: T1, ACAT derived from human macrophage (Homo sapiens, UniProt P35610); experiment: Inhibitory activity against ACAT derived from human macrophage (microsomes of TPA-differentiated U937 cells); assay type: biochemical; details: for Selectivity: Table 1, rat liver ACAT IC50 / human macrophage ACAT IC50; for IC50: human macrophage (U937/TPA) microsome, pH 7.4, 37° C., 30 minutes; for selectivity (times greater, human macrophage ACAT vs rat liver ACAT): linoleoylamide derivatives
T1 construct: Using, as an enzyme source, microsomal fractions prepared in the manner described below under Preparation of Microsome from U937 cells; endogenous in cells; host or cells: U937 cells differentiated with TPA, microsomal fraction
T1 sequence (P35610 1-550): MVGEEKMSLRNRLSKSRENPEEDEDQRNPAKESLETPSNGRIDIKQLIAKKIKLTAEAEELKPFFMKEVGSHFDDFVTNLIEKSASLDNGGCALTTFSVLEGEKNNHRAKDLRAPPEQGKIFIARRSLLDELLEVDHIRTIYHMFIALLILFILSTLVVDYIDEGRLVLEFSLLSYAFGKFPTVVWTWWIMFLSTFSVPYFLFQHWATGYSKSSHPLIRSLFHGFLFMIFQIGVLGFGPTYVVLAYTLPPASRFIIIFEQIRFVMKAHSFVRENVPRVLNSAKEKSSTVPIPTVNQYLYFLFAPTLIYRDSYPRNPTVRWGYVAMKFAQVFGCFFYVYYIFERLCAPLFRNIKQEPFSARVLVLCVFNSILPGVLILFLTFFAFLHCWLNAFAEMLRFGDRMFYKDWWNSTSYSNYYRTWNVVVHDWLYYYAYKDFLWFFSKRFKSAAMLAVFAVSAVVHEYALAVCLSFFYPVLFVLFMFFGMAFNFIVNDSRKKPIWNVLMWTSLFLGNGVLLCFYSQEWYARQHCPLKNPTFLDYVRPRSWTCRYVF
Protocol: Inhibitory activity against ACAT derived from human macrophage
as §1, with “source,” for “source, the”, “prepared” for “prepared from rat liver”, “Microsome from U937 cells [human monocyte-derived cells known to differentiate into macrophages by the addition of TPA (12-O-tetradecanoylphorbol 13-acetate)] differentiated with TPA,” for “Microsome,”, “re-dissolved” for “re-dissolved dissolved”, “with” for “using”
The cells thus scraped and the culture solution were centrifuged at 3,000 rpm for 5 minutes, and the cell fractions obtained as precipitate were once freezed at -70° C. and preserved. The cells preserved at -70° C. were thawed and homogenized at 4° C. in a Teflon homogenizer. The homogenate was centrifuged at 12,000 g for 15 minutes. The precipitate fractions containing nuclea and mitochondria were removed and the obtained supernatant was further centrifuged at 100,000 g for 60 minutes. The supernatant was discarded, and the obtained precipitate fractions were suspended in 150 mM potassium phosphate buffer (pH 7.4) and used as a microsomal fraction.

[3] = Reduction of cholesterol in blood of cholesterol-loaded rats; assay type: in vivo, Male slc:SD (SPF) rats; details: serum total cholesterol; 90 mg/kg/day orally, five days; average of 8 rats; control taken as 100%
From the text: Reduction of cholesterol in blood of rats
Male slc:SD (SPF) rats (4 weeks of age weighing 70-90 g, Japan SLC Inc.) were randomly divided into 8 per group and bred for 3 days on a normal diet (solid diet for test animals, MF, manufactured by Oriental Yeast CO., LTD.). Then, the aforementioned diet supplemented with 5% cholesterol, 10% olive oil and 0.5% cholic acid was freely fed for 10 days. During the last five days, the test compound (Compounds 3-6, 8, 11 and 12) suspended in 0.5% aqueous methylcellulose solution was forcibly administered orally once a day in a dose of 10 ml/kg which contains 90 mg/kg/day of the test compound (total dose of the test compound being 450 mg/kg). The rats were fasted for 16 hours after the final administration and etherized. The blood was taken from the abdominal aorta, and serum was separated by centrifugation to determine the total cholesterol content in the serum. The control group was administered with 0.5% aqueous methylcellulose solution instead of the test compound suspended in 0.5% aqueous methylcellulose solution.
* is an average of 8 rats per group based on the cholesterol content in
blood of control which was taken as 100%.

SMILES | IC50 [1] | Selectivity [2] | IC50 [2] | Reduction of cholesterol in cholesterol-loaded rats, %* [3] | selectivity (times greater, human macrophage ACAT vs rat liver ACAT) [2] | ACAT inhibitory activity (in words) ([2]; human macrophage ACAT)
CCC=CCC=CCC=CCC=CCC=CCCCC(=O)Nc1c(OC)cc(OC)cc1OC [Compound 1, N-(2,4,6-trimethoxyphenyl)-5,8,11,14,17-eicosapentaenamide] | 13.4 µM | 49.6 | 0.27 µM | – | – | –
CCC=CCC=CCC=CCC=CCC=CCC=CCCC(=O)Nc1c(OC)cc(OC)cc1OC [Compound 2, N-(2,4,6-trimethoxyphenyl)-4,7,10,13,16,19-docosahexaenamide] | 20.3 µM | 40.6 | 0.5 µM | – | – | –
CCC=CCC=CCC=CCC=CCC=CCCCC(=O)Nc1c(C)cccc1C [Compound 7, N-(2,6-dimethylphenyl)-5,8,11,14,17-eicosapentaenamide] | 4.25 µM | 70.8 | 0.06 µM | – | – | –
CCC=CCC=CCC=CCC=CCC=CCCCC(=O)Nc1c(CC)cccc1CC [Compound 9, N-(2,6-diethylphenyl)-5,8,11,14,17-eicosapentaenamide] | 1.08 µM | 60 | 0.018 µM | – | – | –
CCC=CCC=CCC=CCC=CCC=CCC=CCCC(=O)Nc1c(CC)cccc1CC [Compound 10, N-(2,6-diethylphenyl)-4,7,10,13,16,19-docosahexaenamide] | 11.5 µM | 395 | 0.029 µM | – | – | –
CCC=CCC=CCC=CCC=CCC=CCC=CCCC(=O)Nc1c(C(C)C)cccc1C(C)C [Compound 12, N-(2,6-diisopropylphenyl)-4,7,10,13,16,19-docosahexaenamide] | 52.7 µM | – | – | 64% | – | –
CCC=CCC=CCC=CCC=CCC=CCCCC(=O)NCCNC(=O)Nc1c(C(C)C)cccc1C(C)C [Compound 13, N-(5,8,11,14,17-eicosapentaenoyl)-N'-(2,6-diisopropylanilinocarbonyl)ethylenediamine] | > 500 µM | > 746 | 0.67 µM | – | – | –
CCC=CCC=CCC=CCC=CCC=CCC=CCCC(=O)NCCNC(=O)Nc1c(C(C)C)cccc1C(C)C [Compound 14, N-(4,7,10,13,16,19-docosahexaenoyl)-N'-(2,6-diisopropylanilinocarbonyl)ethylenediamine] | > 500 µM | > 111 | 4.52 µM | – | – | –
CCC=CCC=CCC=CCC=CCC=CCCCC(=O)N1CCN(C(=O)Nc2c(C(C)C)cccc2C(C)C)CC1 [Compound 15, N-(5,8,11,14,17-eicosapentaenoyl)-N'-(2,6-diisopropylanilinocarbonyl)piperazine] | > 500 µM | > 463 | 1.08 µM | – | – | –
CCC=CCC=CCC=CCC=CCC=CCC=CCCC(=O)N1CCN(C(=O)Nc2c(C(C)C)cccc2C(C)C)CC1 [Compound 16, N-(4,7,10,13,16,19-docosahexaenoyl)-N'-(2,6-diisopropylanilinocarbonyl)piperazine] | > 500 µM | > 725 | 0.69 µM | – | – | –
CCC=CCC=CCC=CCC=CCC=CCCCC(=O)NC1CCCCC1NC(=O)Nc1c(C(C)C)cccc1C(C)C (centres unmarked) [Compound 17, N-(5,8,11,14,17-eocosapentaenoyl)-N'-(2,6-diisopropylanilinocarbonyl)-1,2-diaminocyclohexane] | > 500 µM | > 269 | 1.86 µM | – | – | –
CCC=CCC=CCC=CCC=CCC=CCC=CCCC(=O)NC1CCCCC1NC(=O)Nc1c(C(C)C)cccc1C(C)C (centres unmarked) [Compound 18, N-(4,7,10,13,16,19-docosahexaenoyl)-N'-(2,6-diisopropylanilinocarbonyl)-1,2-diaminocyclohexane] | > 500 µM | > 190 | 2.63 µM | – | – | –
CCC=CCC=CCC=CCC=CCC=CCCCC(=O)Nc1ccc(CNC(=O)Nc2c(C(C)C)cccc2C(C)C)cc1 [Compound 19, N-{4-(5,8,11,14,17-eicosapentaenoylamino)phenylmethyl}-N'-(2,6-diisopropylphenyl)urea] | > 500 µM | > 3333 | 0.15 µM | – | – | –
CCC=CCC=CCC=CCC=CCC=CCC=CCCC(=O)Nc1ccc(CNC(=O)Nc2c(C(C)C)cccc2C(C)C)cc1 [Compound 20, N-{4-(4,7,10,13,16,19-docosahexaenoylamino)phenylmethyl}-N'-(2,6-diisopropylphenyl)urea] | 20.2 µM | 18.4 | 1.1 µM | – | – | –
CCC=CCC=CCC=CCC=CCC=CCCCC(=O)NCc1ccc(NC(=O)Nc2c(C(C)C)cccc2C(C)C)cc1 [Compound 21, N-{4-(5,8,11,14,17-eicosapentaenoylaminomethyl)phenyl}-N'-(2,6-diisopropylphenyl)urea] | > 500 µM | >75.3 | 6.64 µM | – | – | –
CCC=CCC=CCC=CCC=CCC=CCC=CCCC(=O)NCc1ccc(NC(=O)Nc2c(C(C)C)cccc2C(C)C)cc1 [Compound 22, N-{4-(4,7,10,13,16,19-docosahexaenoylaminomethyl)phenyl}-N'-(2,6-diisopropylphenyl)urea] | > 500 µM | >27.9 | 17.9 µM | – | – | –
CCCCC/C=C\C/C=C\CCCCCCCC(=O)Nc1c(C(C)C)cccc1C(C)C [reference compound] | 0.09 µM | – | 0.006 µM | – | about fifteen times | –
CCCCC/C=C\C/C=C\CCCCCCCC(=O)N1CCN(C(=O)Nc2c(C(C)C)cccc2C(C)C)CC1 [reference compound] | ≥ 500 µM | – | 4.61 µM | – | – | low activity
CCCCC/C=C\C/C=C\CCCCCCCC(=O)Nc1c(OC)cc(OC)cc1OC [reference compound] | 0.87 µM | – | 0.67 µM | – | scarce selectivity | –
CCCCCC=CCC=CCCCCCCCC(=O)Nc1c(C)cccc1C [reference compound] | 0.14 µM | – | 0.07 µM | – | about twice | –
CCCCC/C=C\C/C=C\CCCCCCCC(=O)Nc1c(CC)cccc1CC [reference compound] | 0.1 µM | – | 0.02 µM | – | about five times | –
